Data on four compounds can be found in US11089783B2, “2-(het)aryl-substituted fused heterocycle derivatives as pesticides” (Bayer Aktiengesellschaft, priority 2017, dated 2021).

Holding throughout (assay type): in vivo
Assay [1] concerns Myzus persicae. Nature of the assay: Myzus persicae spray test (MYZUPE), Chinese cabbage leaf discs. The method, boiled down:
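Leaf discs of Chinese cabbage carrying all stages of green peach aphid were sprayed with compound formulated in solvent and diluted with water containing emulsifier at 1000 ppm. Percent efficacy (100% = all aphids dead) was scored after 5 days or after the desired time.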

Assay [2] relates to Phaedon cochleariae. Nature of the assay: Phaedon cochleariae spray test (PHAECO), Chinese cabbage leaf discs. Conditions: for pest or weed control at 100 g/ha: read-out: efficacy. Put shortly:
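Chinese cabbage (Brassica pekinensis) leaf discs sprayed with compound in water with 1000 ppm emulsifier, then after drying infested with Phaedon cochleariae larvae. Efficacy (% larvae killed) scored after 7 days or the chosen interval.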

In assay [3] the test system is Lucilia cuprina. Nature of the assay: Lucilia cuprina test. Conditions: 48 h, L1 larvae, after 2 days, read-out: efficacy (kill). Here is the method:
Solvent: dimethyl sulfoxide To produce a suitable active ingredient formulation, 10 mg of active ingredient are mixed with 0.5 ml of dimethyl sulfoxide, and the concentrate is diluted with water to the desired concentration. About 20 L1 larvae of the Australian sheep blowfly (Lucilia cuprina) are transferred into a test vessel containing minced horsemeat and the active ingredient formulation of the desired concentration. After 2 days, the kill in % is determined. 100% means that all the larvae have been killed; 0% means that no larvae have been killed.

For assay [4], the system named is Myzus persicae. The assay can be described thus: Myzus persicae oral test. Conditions: 120 h, after 5 days, read-out: efficacy. Here is the method: [table] To produce a suitable active ingredient formulation, 1 part by weight of active ingredient is dissolved with the stated parts by weight of solvent and made up to the desired concentration with water. 50 μl of the active ingredient preparation are transferred into microtitre plates and made up to a final volume of 200 μl with 150 μl of IPL41 insect medium (33%+15% sugar). Subsequently, the plates are sealed with parafilm, which a mixed population of green peach aphids (Myzus persicae) within a second microtitre plate is able to puncture and imbibe the solution. After 5 days, the efficacy in % is determined. 100% means that all the aphids have been killed; 0% means that no aphids have been killed.

In assay [5] the test system is Musca domestica. Nature of the assay: Musca domestica test. Particulars: 100 ppm, adult houseflies, after 2 days. The protocol: Solvent: dimethyl sulfoxide To produce a suitable active ingredient formulation, 10 mg of active ingredient are mixed with 0.5 ml of dimethyl sulfoxide, and the concentrate is diluted with water to the desired concentration. Vessels containing a sponge treated with sugar solution and the active ingredient formulation of the desired concentration are populated with 10 adult houseflies (Musca domestica). After 2 days, the kill in % is determined. 100% means that all of the flies have been killed; 0% means that none of the flies have been killed.

In assay [6] the test system is Aphis gossypii. The assay can be described thus: Aphis gossypii spray test (APHIGO), cotton plants. Conditions: 6 dat. Here is the method: (§1) [table] To produce an appropriate active ingredient formulation, 1 part by weight of active ingredient is dissolved with the specified parts by weight of solvent and made up with water containing an emulsifier concentration of 1000 ppm until the desired concentration is attained. To produce further test concentrations, the mixture is diluted with emulsifier-containing water. If addition of ammonium salts or/and penetrants is required, these are each added to the preparation solution in a concentration of 1000 ppm. Cotton plants (Gossypium hirsutum) severely infested by the cotton aphid (Aphis gossypii) are sprayed with an active ingredient formulation of the desired concentration. After the desired time, the kill in % is determined. 100% means that all aphids have been killed; 0% means that no aphids have been killed.

For assay [7], the system named is Nilaparvata lugens. The assay can be described thus: Nilaparvata lugens spray test (NILALU). Particulars: 4 g/ha, 4 dat. The protocol: as §1, with “ppm. Rice” for “ppm. Cotton”, “plants (Oryza sativa)” for “plants (Gossypium hirsutum) severely infested by the cotton aphid (Aphis gossypii)”, “desired concentration and then populated with larvae of the brown planthopper (Nilaparvata lugens).” for “desired concentration.”, “the efficacy” for “the kill”, “all planthoppers” for “all aphids”, “no planthoppers” for “no aphids”

Assay [8] relates to Meloidogyne incognita. The assay can be described thus: Meloidogyne incognita test (MELGIN). Particulars: 14 days (14 dat). The protocol:
[table] To produce a suitable active ingredient formulation, 1 part by weight of active ingredient is mixed with the stated amount of solvent and the concentrate is diluted to the desired concentration with water. Vessels are filled with sand, active ingredient solution, an egg/larvae suspension of the southern root-knot nematode (Meloidogyne incognita) and lettuce seeds. The lettuce seeds germinate and the plants develop. The galls develop on the roots. After 14 days, the nematicidal efficacy in % is determined by the formation of galls. 100% means that no galls were found; 0% means that the number of galls on the treated plants corresponds to the untreated control. [table] To produce an appropriate active ingredient formulation, 1 part by weight of active ingredient is mixed with the specified amount of solvent and the concentrate is diluted to the desired concentration with water. Vessels are filled with sand, active ingredient solution, an egg/larvae suspension of the southern root-knot nematode (Meloidogyne incognita) and lettuce seeds. The lettuce seeds germinate and the plants develop. The root-knots develop on the roots. After the desired time, the nematicidal effect is determined from the formation of root-knots in %. 100% means that no root-knots were found; 0% means that the number of root-knots on the treated plants corresponds to that on the untreated control.

The subject of assay [9] is Ctenocephalides felis. The assay can be described thus: Ctenocephalides felis oral test. Conditions: 100 ppm, after 2 days. The protocol:
Solvent: dimethyl sulfoxide To produce a suitable active ingredient formulation, 10 mg of active ingredient are mixed with 0.5 ml of dimethyl sulfoxide. Dilution with citrated cattle blood gives the desired concentration. About 20 unfed adult cat fleas (Ctenocephalides felis) are placed into a chamber which is closed at the top and bottom with gauze. A metal cylinder whose bottom end is closed with parafilm is placed onto the chamber. The cylinder contains the blood/active ingredient formulation, which can be imbibed by the fleas through the parafilm membrane. After 2 days, the kill in % is determined. 100% means that all of the fleas have been killed; 0% means that none of the fleas have been killed.

Assay [10] concerns Ctenocephalides felis. The assay can be described thus: Ctenocephalides felis in vitro contact test with adult cat fleas. Conditions: 5 μg/cm^2 (=500 g/ha), after 48 h. Here is the method:
For the coating of the test tubes, 9 mg of active ingredient are first dissolved in 1 ml of acetone p.a. and then diluted to the desired concentration with acetone p.a. 250 μl of the solution are distributed homogeneously on the inner walls and the base of a 25 ml glass tube by turning and rocking on an orbital shaker (rocking rotation at 30 rpm for 2 h). With 900 ppm of active ingredient solution and internal surface area 44.7 cm^2, given homogeneous distribution, an area-based dose of 5 μg/cm^2 is achieved. After the solvent has evaporated off, the tubes are populated with 5-10 adult cat fleas (Ctenocephalides felis), sealed with a perforated plastic lid and incubated in a horizontal position at room temperature and ambient humidity. After 48 h, efficacy is determined. To this end, the tubes are stood upright and the fleas are knocked to the base of the tube. Fleas which remain motionless at the base or move in an uncoordinated manner are considered to be dead or moribund. […] 100% efficacy means that all the fleas were dead or moribund. 0% efficacy means that no fleas were harmed.

Assay [11] relates to Nezara viridula. Nature of the assay: Nezara viridula spray test (NEZARA / NEZAVI). Conditions: Nezara viridula, 96 h, 20 g/ha, 4 dat, read-out: % efficacy. Put shortly: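 Barley plants infested with Nezara viridula larvae were sprayed with active ingredient in solvent/emulsifier water (1000 ppm emulsifier; ammonium salt or penetrant at 1000 ppm if added). Efficacy scored as % mortality after the set time (100% = all bugs killed).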

Assay [12] has as its system Myzus persicae. The assay can be described thus: Myzus persicae drench test (MYZUPE D), savoy cabbage plants. Particulars: soil, 240 h, 10 dat, read-out: % efficacy. Here is the method:
[table] To produce an appropriate active ingredient formulation, 1 part by weight of active ingredient is mixed with the specified amounts of solvent and emulsifier and the concentrate is diluted to the desired concentration with water, it being necessary to take into account the volume of soil into which drenching is effected. It should be ensured that a concentration of 40 ppm of emulsifier in the soil is not exceeded. For production of further test concentrations, the mixture is diluted with water. Savoy cabbage plants (Brassica oleracea) in soil pots, infested by all stages of the green peach aphid (Myzus persicae), are drenched with an active ingredient formulation of the desired concentration. After the desired time, the efficacy in % is determined. 100% means that all the aphids have been killed; 0% means that no aphids have been killed.

The mark [13] stands for this setting: Myzus persicae, foliar, 120 h, 5 days (5 dat), read-out: efficacy.
[14] abbreviates: Phaedon cochleariae, foliar, 168 h, 100 g/ha, 7 days (7 dat).

On to `CCNC(=O)c1ccc(S(=O)(=O)CC)c(-c2nc3cc(C(F)(F)C(F)(F)F)nnc3n2C)n1` [Example I-04, N-ethyl-5-(ethylsulfonyl)-6-[7-methyl-3-(pentafluoroethyl)-7H-imidazo[4,5-c]pyridazin-6-yl]pyridine-2-carboxamide], for which the pest or weed control at 100 g/ha in [1] (setting [13]) and in [2] (setting [14]) was 100% throughout. Moreover, the pest or weed control at 100 ppm in [3] was found to be 100%. In addition, in assay [4], the pest or weed control at 0.8 ppm is 100%. Further, the “efficacy (kill)” value in [5] amounted to 80%.
For `CCS(=O)(=O)c1ccc(C(=O)NC)nc1-c1nc2cc(C(F)(F)C(F)(F)F)nnc2n1C` [Example I-01], the “% efficacy” value in [1] (MYZUPE, 4 g/ha, 5 dat) came to 90%; in assay [6] (0.8 ppm) it was 70%; in assay [6] (4 ppm), 100%; in assay [2] (PHAECO, 20 g/ha, 7 dat) it was 67%; in assay [7] it was 100%. The pest or weed control at 100 g/ha in assay [1] (setting [13]) was determined as 90%. This compound also displayed an efficacy in [2] (100 g/ha, 7 days (7 dat)) of 100%. For the same compound, in assay [3], the pest or weed control at 100 ppm stood at 100%. In assay [4], the pest or weed control at 0.8 ppm is 100%. Also, in assay [5], the “efficacy (kill)” value is 100%. Also, the “efficacy (nematicidal, gall formation)” value in assay [8] (20 ppm) is on record as 90%.
Take `CN(C)C(=O)Nc1ccc(S(C)(=O)=O)c(-c2nc3cc(C(F)(F)C(F)(F)F)nnc3n2C)n1` [Example I-12]: the pest or weed control at 20 g/ha in assay [1] (Myzus persicae, foliar, 120 h, 20 g/ha, 5 days (5 dat), read-out: efficacy) was found to be 90%. The pest or weed control at 100 g/ha was 90% in assay [1] (setting [13]) and 100% in assay [2] (setting [14]). Besides, in [2] (Phaedon cochleariae, foliar, 168 h, PHAECO, 20 g/ha, 7 dat), the percent efficacy (larval mortality) at a fixed application rate at 20 g/ha stood at 100%. Also, in [3], the pest or weed control at 100 ppm came out at 100%. Also, the “efficacy (kill)” value in assay [9] is recorded as 100%. Further, the pest or weed control at 0.8 ppm in [4] worked out at 100%. In addition, the pest or weed control at 20 ppm in [8] (Meloidogyne incognita, 336 h, read-out: efficacy (nematicidal, gall formation)) turned out to be 100%. For the same compound, the efficacy in assay [10] is 100%.
With `CNC(=O)Nc1ccc(S(C)(=O)=O)c(-c2nc3cc(C(F)(F)C(F)(F)F)nnc3n2C)n1` [Example I-11], the Emax at 20 g/ha in [11] amounted to 100%; in [2] (Phaedon cochleariae, foliar, 168 h, PHAECO, 20 g/ha, 7 dat, read-out: % efficacy) it was 83%. Besides, the Emax at 20 ppm in assay [6] (Aphis gossypii, 144 h, 20 ppm, read-out: % efficacy) was determined as 95%. In addition, the pest or weed control at 100 g/ha in [2] (setting [14]) amounted to 100%. Besides, the pest or weed control at 100 ppm in [3] was 100%. For the same compound, in assay [9], the “efficacy (kill)” value was found to be 100%. Besides, in [4], the pest or weed control at 0.8 ppm turned out to be 100%. Besides, in assay [12] (0.8 ppm), the Emax at 0.8 ppm stood at 95%. The Emax at 4 ppm in assay [12] (4 ppm) was 98%. The compound also showed an efficacy in [10] of 100%.
